This is an account of results in patent publication US11440913B2, “Aminoimidazopyridazines as kinase inhibitors” (BRISTOL-MYERS SQUIBB COMPANY, priority 2017, dated 2022).

The structures appear in SMILES notation.

Assay [1] concerns the target His-GST-TVMV-hRIPK1(1-324) (Homo sapiens (Human), UniProt Q13546). Nature of the assay: RIPK1 HTRF Binding Assay. Particulars: HTRF binding, 1 h at rt; read-out: RIPK1 (IC50). Summed up:
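HTRF probe-displacement binding: 1 nM His-GST-TVMV-hRIPK1(1-324) (baculovirus construct), 90.6 nM probe, 0.2 nM anti-GST-Tb in 20 mM HEPES, 10 mM MgCl2, 0.015% Brij-35, 4 mM DTT, 0.05 mg/mL BSA. Incubated 1 h at rt; FRET 520/495 nm ratio, inhibition relative to DMSO-only wells.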
A general note: TR-FRET usually uses a lanthanide donor and a delayed reading to cut background.

Assay [2] has as its system MLKL phosphorylation in HT29-L23 human colorectal adenocarcinoma cells. The assay is described as follows: MLKL Phosphorylation High-Content Assay. The class given is cell-based. As to conditions: Homo sapiens, 6 h, necroptosis induced with TNFα, SMAC mimetic and Z-VAD, read-out: pMLKL (IC50). Summed up:
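HT29-L23 cells pretreated 30 min at 37 °C with compound (6.25 to 0.106 μM final), then necroptosis induced with TNFα 35 ng/mL, SMAC mimetic 700 nM and Z-VAD 140 nM for 6 h. Fixed cells immunostained for MLKL pS358 and imaged; IC50 and Ymax from 4-parameter logistic fit.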

His-GST-TVMV-hRIPK1(1-324), sequence (Q13546 1-324): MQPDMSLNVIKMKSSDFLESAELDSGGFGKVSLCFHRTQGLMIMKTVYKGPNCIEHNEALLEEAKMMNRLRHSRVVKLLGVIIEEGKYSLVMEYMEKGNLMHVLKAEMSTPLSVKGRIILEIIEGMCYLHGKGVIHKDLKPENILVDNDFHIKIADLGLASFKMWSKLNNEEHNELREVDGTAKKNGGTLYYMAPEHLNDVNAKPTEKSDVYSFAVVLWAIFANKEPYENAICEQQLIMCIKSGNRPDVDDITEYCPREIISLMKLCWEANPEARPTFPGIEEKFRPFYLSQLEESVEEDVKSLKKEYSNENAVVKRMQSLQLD

By IC50 is commonly meant the concentration at which inhibition is half-maximal. `[2H]C([2H])([2H])[C@@H](NC(=O)c1c(C)ccc(-c2ccc3nc(NC(C)=O)cn3n2)c1F)c1cc(OC(F)(F)F)ccc1F` [Example 412, 3-{2-acetamidoimidazo [1,2-b]pyridazin-6-yl}-2-fluoro-N-[(1R)-1-[2-fluoro-5-(trifluoromethoxy)phenyl](2,2,2-Â^2Hâ,f)ethyl]-6-methylbenzamide]: the concentration for half-maximal inhibition (IC50) in assay [1] turned out to be 4 nM; in assay [2], 1 nM.
As to `[2H]C([2H])([2H])[C@@H](NC(=O)c1c(C)ccc(-c2ccc3nc(NC(C)=O)cn3n2)c1F)c1cc(C(F)(F)F)ccc1F` [Example 413, 3-{2-acetamidoimidazo [1,2-b]pyridazin-6-yl}-2-fluoro-N-[(1R)-1-[2-fluoro-5-(trifluoromethyl)phenyl](2,2,2-Â^2Hâ,f)ethyl]-6-methylbenzamide], the IC50 in assay [1] turned out to be 3 nM; in assay [2], 1 nM.
As to `COc1c(F)cc(F)cc1CNC(=O)c1c(C)ccc(-c2ccc3nc(NC(C)=O)cn3n2)c1F` [Example 414, N-[(3,5-difluoro-2-methoxyphenyl)methyl]-3-{2-acetamidoimidazo [1,2-b]pyridazin-6-yl}-2-fluoro-6-methylbenzamide], the IC50 was found to be 91 nM in assay [1] and 384 nM in assay [2].
With `CC(=O)Nc1cn2nc(-c3cc(C(=O)NCc4cc(C(=O)N5CCCC5(C)C)ccc4F)c(C)cc3F)ccc2n1` [Example 416, N-{[5-(2,2-dimethylpyrrolidine-1-carbonyl)-2-fluorophenyl]methyl}-5-{2-acetamidoimidazo [1,2-b]pyridazin-6-yl}-4-fluoro-2-methylbenzamide], the values for the concentration for half-maximal inhibition (IC50) in assay [1] and in assay [2] were 13 nM and 72 nM, respectively.
On to `[2H]C([2H])([2H])Oc1cc(C)c(-c2ccc3nc(NC(C)=O)cn3n2)cc1C(=O)NCc1cc(OC(F)(F)F)ccc1F` [Example 417], for which the IC50 was found to be 4 nM in assay [1] and 9 nM in assay [2].
`COc1cc(F)c(-c2ccc3nc(NC(C)=O)cn3n2)cc1C(=O)NCc1cc(F)ccc1C(=O)N1CCCC1(C)C` [Example 419, N-{[2-(2,2-dimethylpyrrolidine-1-carbonyl)-5-fluorophenyl]methyl}-5-{2-acetamidoimidazo [1,2-b]pyridazin-6-yl}-4-fluoro-2-methoxybenzamide]: the IC50 in assay [1] is 4 nM; in assay [2], 28 nM.
For `COc1cc(F)c(-c2ccc3nc(NC(C)=O)cn3n2)cc1C(=O)NCc1c(F)cccc1OC` [Example 420, 5-{2-acetamidoimidazo [1,2-b]pyridazin-6-yl}-4-fluoro-N-[(2-fluoro-6-methoxyphenyl)methyl]-2-methoxybenzamide], in that order: 90 nM and 77 nM.
Consider `COc1cc(C)c(-c2ccc3nc(NC(C)=O)cn3n2)cc1C(=O)NCc1cc(OC(F)(F)F)ccc1F` [Example 421, 5-{2-acetamidoimidazo [1,2-b]pyridazin-6-yl}-N-{[2-fluoro-5-(trifluoromethoxy)phenyl]methyl}-2-methoxy-4-methylbenzamide], for which the figures for the IC50 in assay [1] and in assay [2] were 2 nM and 10 nM, respectively.
For the molecule `COc1cc(C)c(-c2ccc3nc(NC(=O)CO)cn3n2)cc1C(=O)NCc1cc(OC(F)(F)F)ccc1F` [Example 422, N-(2-fluoro-5-(trifluoromethoxy)benzyl)-5-(2-(2-hydroxyacetamido)imidazo[1,2-b]pyridazin-6-yl)-2-methoxy-4-methylbenzamide], the results for the IC50 in assay [1] and in assay [2] were 6 nM and 75 nM, respectively.
Consider `CC(=O)Nc1cn2nc(-c3cccc(C(=O)NCc4cc(OC(F)(F)F)ccc4F)c3F)ccc2n1` [Example 424, 3-{2-acetamidoimidazo [1,2-b]pyridazin-6-yl}-2-fluoro-N-{[2-fluoro-5-(trifluoromethoxy)phenyl]methyl} benzamide], for which the IC50 was 2 nM in assay [1] and 3 nM in assay [2].
